The source of these data is patent US20250114374A1, “BCL-2 INHIBITORS” (Newave Pharmaceutical Inc., priority 2021, published 2025).

One assay relates to RS4; 11 with G101V mutation. Nature of the assay: In vitro anti-proliferation assay (ATPlite luminescence) in BCL-2-dependent ALL cell line RS4;11 with G101V mutation. It is filed as cell-based. The following applies: Homo sapiens, RS4-11, 72 h; read-out: RS411-G101V IC50. Summed up: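 IC50 came from luminescent ATP quantification (ATPlite) following cell lysis. Compound dose ranges were applied for roughly 72 h to about 1×10^4 G101V-mutant RS4;11 cells per well, in 10% FBS medium.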
In the case of `CC(C)Oc1ccccc1[C@@H]1CN(CC2CCOCC2)CCN1C1CC2(CCN(c3ccc(C(=O)NS(=O)(=O)c4cc5c(c([N+](=O)[O-])c4)N[C@H](C4CCOCC4)CO5)c(N4c5cc6cc[nH]c6nc5O[C@H]5COCC[C@@H]54)c3)CC2)C1` [Example 176, 4-(2-((R)-2-(2-isopropoxyphenyl)-4-((tetrahydro-2H-pyran-4-yl)methyl)piperazin-1-yl)-7-azaspiro[3.5]nonan-7-yl)-N-(((R)-5-nitro-3-(tetrahydro-2H-pyran-4-yl)-3,4-dihydro-2H-benzo[b][1,4]oxazin-7-yl)sulfonyl)-2-((5aS,9aR)-6,7,9,9a-tetrahydro-1H-pyrano[3,4-b]pyrrolo[3′,2′:5,6]pyrido[3,2-e][1,4]oxazin-5(5aH)-yl)benzamide], the IC50 is 22.2 nM. For the compound `Cc1ccccc1[C@@H]1CN([C@H]2CCOc3c(F)cc(F)cc32)CCN1C1CC2(CCN(c3ccc(C(=O)NS(=O)(=O)c4cc5c(c([N+](=O)[O-])c4)N[C@H](C4CCOCC4)CO5)c(N4c5cc6cc[nH]c6nc5O[C@H]5COCC[C@@H]54)c3)CC2)C1` [Example 197, 4-(2-((R)-4-((S)-6,8-difluorochroman-4-yl)-2-(o-tolyl)piperazin-1-yl)-7-azaspiro[3.5]nonan-7-yl)-N-(((R)-5-nitro-3-(tetrahydro-2H-pyran-4-yl)-3,4-dihydro-2H-benzo[b][1,4]oxazin-7-yl)sulfonyl)-2-((5aS,9aR)-6,7,9,9a-tetrahydro-1H-pyrano[3,4-b]pyrrolo[3′,2′:5,6]pyrido[3,2-e][1,4]oxazin-5(5aH)-yl)benzamide], the half-maximal inhibitory concentration (IC50) turned out to be 328 nM. Still for that read-out and setting: to `CC(C)Oc1ccccc1[C@@H]1CN([C@H]2COc3c(F)cc(F)cc3C2)CCN1C1CC2(CCN(c3ccc(C(=O)NS(=O)(=O)c4cc5c(c([N+](=O)[O-])c4)N[C@H](C4CCOCC4)CO5)c(N4c5cc6cc[nH]c6nc5O[C@H]5COCC[C@@H]54)c3)CC2)C1` [Example 221, 4-(2-((R)-4-((R)-6,8-difluorochroman-3-yl)-2-(2-isopropoxyphenyl)piperazin-1-yl)-7-azaspiro[3.5]nonan-7-yl)-N-(((R)-5-nitro-3-(tetrahydro-2H-pyran-4-yl)-3,4-dihydro-2H-benzo[b][1,4]oxazin-7-yl)sulfonyl)-2-((5aS,9aR)-6,7,9,9a-tetrahydro-1H-pyrano[3,4-b]pyrrolo[3′,2′:5,6]pyrido[3,2-e][1,4]oxazin-5(5aH)-yl)benzamide] belongs 130 nM. On the same count and under the same terms, to `CC(C)Oc1ccccc1[C@@H]1CN(c2ccncc2)CCN1C1CC2(CCN(c3ccc(C(=O)NS(=O)(=O)c4cc5c(c([N+](=O)[O-])c4)N[C@H](C4CCOCC4)CO5)c(N4c5cc6cc[nH]c6nc5O[C@H]5COCC[C@@H]54)c3)CC2)C1` [Example 223, 4-(2-((R)-2-(2-isopropoxyphenyl)-4-(pyridin-4-yl)piperazin-1-yl)-7-azaspiro[3.5]nonan-7-yl)-N-(((R)-5-nitro-3-(tetrahydro-2H-pyran-4-yl)-3,4-dihydro-2H-benzo[b][1,4]oxazin-7-yl)sulfonyl)-2-((5aS,9aR)-6,7,9,9a-tetrahydro-1H-pyrano[3,4-b]pyrrolo[3′,2′:5,6]pyrido[3,2-e][1,4]oxazin-5(5aH)-yl)benzamide] belongs 223 nM. Still for that read-out and setting: with `COc1cc(CN2CCN(C3CC4(CCN(c5ccc(C(=O)NS(=O)(=O)c6cc7c(c([N+](=O)[O-])c6)N[C@@H](C6CCOCC6)CO7)c(N6c7cc8cc[nH]c8nc7O[C@H]7COCC[C@@H]76)c5)CC4)C3)[C@H](c3ccccc3C)C2)cnc1N1CCOCC1` [Example 142, 4-(2-((R)-4-((5-methoxy-6-morpholinopyridin-3-yl)methyl)-2-(o-tolyl)piperazin-1-yl)-7-azaspiro[3.5]nonan-7-yl)-N—(((S)-5-nitro-3-(tetrahydro-2H-pyran-4-yl)-3,4-dihydro-2H-benzo[b][1,4]oxazin-7-yl)sulfonyl)-2-((5aS,9aR)-6,7,9,9a-tetrahydro-1H-pyrano[3,4-b]pyrrolo[3′,2′:5,6]pyrido[3,2-e][1,4]oxazin-5(5aH)-yl)benzamide] the figure was 8 nM.

Still in this assay, the particulars now being: cellular anti-proliferative IC50, about 72 hours, medium with 10% FBS, ATPlite; read-out: RS411-G101V IC50.
For the compound `COc1cc(CN2CCN(C3CC4(CCN(c5ccc(C(=O)NS(=O)(=O)c6ccc(NCC7CCC(C)(O)CC7)c([N+](=O)[O-])c6)c(N6c7cc8cc[nH]c8nc7O[C@H]7COCC[C@@H]76)c5)CC4)C3)[C@@H](c3ccccc3OC(C)C)C2)cnc1OC` (stereo partly drawn) [Example 104, 4-{2-[(2S)-4-[(5,6-dimethoxypyridin-3-yl)methyl]-2-(2-isopropoxyphenyl)piperazin-1-yl]-7-azaspiro[3.5]nonan-7-yl}-2-[(3R,8S)-2,5-dioxa-9,15,17-triazatetracyclo[8.7.0.0^{3,8}.0^{12,16}]heptadeca-1(10),11,13,16-tetraen-9-yl]-N-[3-nitro-4-({[(1r,4r)-4-hydroxy-4-methylcyclohexyl]methyl}amino)benzenesulfonyl]benzamide], the half-inhibitory concentration (IC50) was determined as 6.9 nM. In the case of `Cc1ccccc1[C@@H]1CN([C@H]2CCOc3cc(F)c(F)cc32)CCN1C1CC2(CCN(c3ccc(C(=O)NS(=O)(=O)c4cc5c(c([N+](=O)[O-])c4)N[C@H](C4CCOCC4)CO5)c(N4c5cc6cc[nH]c6nc5O[C@H]5COCC[C@@H]54)c3)CC2)C1` [Example 170, 4-{2-[(2R)-4-[(4S)-6,7-difluoro-3,4-dihydro-2H-1-benzopyran-4-yl]-2-(2-methylphenyl)piperazin-1-yl]-7-azaspiro[3.5]nonan-7-yl}-2-[(3R,8S)-2,5-dioxa-9,15,17-triazatetracyclo[8.7.0.0^{3,8}.0^{12,16}]heptadeca-1(10),11,13,16-tetraen-9-yl]-N-[(3R)-5-nitro-3-(oxan-4-yl)-3,4-dihydro-2H-1,4-benzoxazin-7-ylsulfonyl]benzamide], the IC50 was found to be 205 nM. On the same count and under the same terms, to `Cc1ccccc1[C@@H]1CN([C@@H]2CCOc3c2ccc(F)c3F)CCN1C1CC2(CCN(c3ccc(C(=O)NS(=O)(=O)c4cc5c(c([N+](=O)[O-])c4)N[C@H](C4CCOCC4)CO5)c(N4c5cc6cc[nH]c6nc5O[C@H]5COCC[C@@H]54)c3)CC2)C1` [Example 195, 4-{2-[(2R)-4-[(4R)-7,8-difluoro-3,4-dihydro-2H-1-benzopyran-4-yl]-2-(2-methylphenyl)piperazin-1-yl]-7-azaspiro[3.5]nonan-7-yl}-2-[(3R,8S)-2,5-dioxa-9,15,17-triazatetracyclo[8.7.0.0^{3,8}.0^{12,16}]heptadeca-1(10),11,13,16-tetraen-9-yl]-N-[(3R)-5-nitro-3-(oxan-4-yl)-3,4-dihydro-2H-1,4-benzoxazin-7-ylsulfonyl]benzamide] belongs 94.5 nM; to `Cc1ccccc1[C@@H]1CN(CC2CCOCC2)CCN1C1CC2(CCN(c3ccc(C(=O)NS(=O)(=O)c4ccc(NC[C@H]5CC[C@](C)(O)CC5)c([N+](=O)[O-])c4)c(N4c5cc6cc[nH]c6nc5O[C@H]5COCC[C@@H]54)c3)CC2)C1` [Example 156, 2-[(3R,8S)-2,5-dioxa-9,15,17-triazatetracyclo[8.7.0.0^{3,8}.0^{12,16}]heptadeca-1(10),11,13,16-tetraen-9-yl]-4-{2-[(2R)-2-(2-methylphenyl)-4-(oxan-4-ylmethyl)piperazin-1-yl]-7-azaspiro[3.5]nonan-7-yl}-N-[3-nitro-4-({[(1r,4r)-4-hydroxy-4-methylcyclohexyl]methyl}amino)benzenesulfonyl]benzamide], 12.2 nM; to `COc1cc(CN2CCN(C3CC4(CCN(c5ccc(C(=O)NS(=O)(=O)c6ccc(NCC7CCC(C)(O)CC7)c([N+](=O)[O-])c6)c(N6c7cc8cc[nH]c8nc7O[C@H]7COCC[C@@H]76)c5)CC4)C3)[C@H](c3ccccc3C)C2)cnc1N1CCOC[C@H]1C` (stereo partly drawn) [Example 139, 2-[(3R,8S)-2,5-dioxa-9,15,17-triazatetracyclo[8.7.0.0^{3,8}.0^{12,16}]heptadeca-1(10),11,13,16-tetraen-9-yl]-4-{2-[(2R)-4-({5-methoxy-6-[(3R)-3-methylmorpholin-4-yl]pyridin-3-yl}methyl)-2-(2-methylphenyl)piperazin-1-yl]-7-azaspiro[3.5]nonan-7-yl}-N-[3-nitro-4-({[(1r,4r)-4-hydroxy-4-methylcyclohexyl]methyl}amino)benzenesulfonyl]benzamide], 3.5 nM. For `CC(C)c1ccccc1[C@@H]1CN(Cc2ccc(F)c(F)c2)CCN1C1CC2(CCN(c3ccc(C(=O)NS(=O)(=O)c4ccc(NCC5CCOCC5)c([N+](=O)[O-])c4)c(N4c5cc6cc[nH]c6nc5O[C@H]5COCC[C@@H]54)c3)CC2)C1` [Example 165, 4-{2-[(2R)-4-[(3,4-difluorophenyl)methyl]-2-(2-isopropylphenyl)piperazin-1-yl]-7-azaspiro[3.5]nonan-7-yl}-2-[(3R,8S)-2,5-dioxa-9,15,17-triazatetracyclo[8.7.0.0^{3,8}.0^{12,16}]heptadeca-1(10),11,13,16-tetraen-9-yl]-N-{3-nitro-4-[(oxan-4-ylmethyl)amino]benzenesulfonyl}benzamide], the IC50 was determined as 10.9 nM. For `CC(C)Oc1ccccc1[C@@H]1CN([C@H]2COCc3c2ccc(F)c3F)CCN1C1CC2(CCN(c3ccc(C(=O)NS(=O)(=O)c4cc5c(c([N+](=O)[O-])c4)N[C@H](C4CCOCC4)CO5)c(N4c5cc6cc[nH]c6nc5O[C@H]5COCC[C@@H]54)c3)CC2)C1` [Example 249, 4-{2-[(2R)-4-[(4R)-7,8-difluoro-3,4-dihydro-1H-2-benzopyran-4-yl]-2-(2-isopropoxyphenyl)piperazin-1-yl]-7-azaspiro[3.5]nonan-7-yl}-2-[(3R,8S)-2,5-dioxa-9,15,17-triazatetracyclo[8.7.0.0^{3,8}.0^{12,16}]heptadeca-1(10),11,13,16-tetraen-9-yl]-N-[(3R)-5-nitro-3-(oxan-4-yl)-3,4-dihydro-2H-1,4-benzoxazin-7-ylsulfonyl]benzamide], the IC50 came out at 12 nM. On the same count and under the same terms, with “4-(2-((R)-2-(2-isopropoxyphenyl)-4-((S)-tetrahydro-2H-pyran-3-yl)piperazin-1-yl)-7-azaspiro[3.5]nonan-7-yl)-N-(((R)-5-nitro-3-(tetrahydro-2H-pyran-4-yl)-3,4-dihydro-2H-benzo[b][1,4]oxazin-7-yl)sulfonyl)-2-((5aS,9aR)-6,7,9,9a-tetrahydro-1H-pyrano[3,4-b]pyrrolo[3′,2′:5,6]pyrido[3,2-e][1,4]oxazin-5(5aH)-yl)benzamide [Example 208]” the figure was 72.7 nM.
